The text below walks through data of patent US5028590A, “Derivatives of A54145 cyclic peptides” (priority 1988, dated 1991).

In one data set the test system is Streptococcus pyogenes. Kind of data set: In vivo protection of experimentally infected mice (ED50). Particulars: administered subcutaneously, doses given 1 and 4 hours postinfection. How it is done:
The formula 1a compounds have shown in vivo antimicrobial activity against experimentally-induced infections in laboratory animals. When two doses of test compound were administered to mice experimentally infected with Streptococcus pyogenes or Staphylococcus aureus, the activity observed was measured as an ED50 value [effective dose in mg/kg to protect 50% of the test animals: see Warren Wick, et al., J. Bacteriol. 81, 233-235 (1961)].

Data set [1] concerns Streptococcus sp. group D 2041. Kind of data set: Agar-dilution MIC, Streptococcus sp. group D 2041. Format: cell-based. On the procedure:
(§1) The MIC's in Table IV were determined by conventional agar-dilution assays.

For data set [2], the system named is Streptococcus pyogenes C203. Kind of data set: Agar-dilution MIC, Streptococcus pyogenes C203. Format: cell-based. How it is done: as §1
Data set [3] in a line: Relative toxicity, median lethal dose in mice. Type of data set: in vivo. The following applies: administered IP in mice. An excerpt: Table VI summarizes the relative toxicity of illustrative formula 1a compounds.
^a When administered IP in mice

For data set [4], the system named is Streptococcus pneumoniae Park 1. Type of data set: cell-based. Particulars: agar dilution. How it is done: as §1
For orientation: In agar dilution, organisms are placed on agar that contains the substance at set levels.

Data set [5] has as its system Staphylococcus epidermidis EPI1. Format: cell-based. The following applies: agar dilution. On the procedure: as §1
Data set [6] has as its system Staphylococcus aureus X400. Kind of data set: Agar-dilution MIC, Staphylococcus aureus X400. Type of data set: cell-based. How it is done: as §1
For data set [7], the system named is Staphylococcus epidermidis 222. Kind of data set: Agar-dilution MIC, Staphylococcus epidermidis 222. Format: cell-based.
The subject of data set [8] is Streptococcus sp. group D X66. Kind of data set: Agar-dilution MIC, Streptococcus sp. group D X66. Type of data set: cell-based. On the procedure:
as §1

The subject of data set [9] is Staphylococcus aureus S13E. Particulars: agar dilution. How it is done: as §1
Data set [10] relates to Staphylococcus aureus V41. Kind of data set: Agar-dilution MIC, Staphylococcus aureus V41. Format: cell-based. On the procedure: as §1
In data set [11] the test system is Staphylococcus aureus X1.1. Kind of data set: Agar-dilution MIC, Staphylococcus aureus X1.1. Type of data set: cell-based. How it is done:
as §1

Regarding “NTrp -(n-Decanoyl)-A54145F Nucleus [Compound 10]”, in the data set with Streptococcus pyogenes, the “ED50 vs. Streptococcus pyogenes” value turned out to be 10.8 mg/kg × 2. Further, the MIC – broadly, the lowest concentration found to suppress growth – came to 128 µg/mL in data set [1]; 4 µg/mL in data set [2]; 32 µg/mL in [4]; 16 µg/mL in [5]; 16 µg/mL in [6]; 16 µg/mL in [7]. The minimum inhibitory concentration (MIC) came out at 128 µg/mL in [8], 16 µg/mL in data set [9], 16 µg/mL in [10] and 16 µg/mL in data set [11]. Also, the “Median Lethal Dose” value in data set [3] is over 505 mg/kg.

Consider “NTrp -(n-Dodecanoyl)-A54145A Nucleus [Compound 4]”, for which the “ED50 vs. Streptococcus pyogenes” value in the data set with Streptococcus pyogenes came to 1.15 mg/kg × 2. For the same substance, the MIC in data set [1] stood at 8 µg/mL; in [2], 0.125 µg/mL; in [4] it was 2 µg/mL; in [5], 1 µg/mL; in data set [6], 1 µg/mL; in data set [7], 1 µg/mL. Further, the minimum inhibitory concentration (MIC) in data set [8] is 4 µg/mL; in data set [9] it was 2 µg/mL; in data set [10], 1 µg/mL; in data set [11], 1 µg/mL. For the same substance, the “Median Lethal Dose” value in data set [3] was determined as 321 mg/kg.

As to “NTrp -(n-Tetradecanoyl)-A54145 Nucleus [Compound 26]”, the MIC was 4 µg/mL in data set [1]; 0.06 µg/mL in data set [2]; 0.125 µg/mL in data set [4]; 0.5 µg/mL in [5]; 0.5 µg/mL in data set [6]; 0.5 µg/mL in [7]. The MIC is 2 µg/mL in [8], 0.25 µg/mL in data set [9], 0.25 µg/mL in data set [10] and 0.25 µg/mL in [11].

“NTrp -(n-Nonanoyl)-A54154A Nucleus [Compound 6]”: the “ED50 vs. Streptococcus pyogenes” value in the data set with Streptococcus pyogenes was 10.6 mg/kg × 2. For the same substance, the MIC was 4 µg/mL in data set [2]; 64 µg/mL in data set [4]; 16 µg/mL in data set [5]; 32 µg/mL in data set [6]; 16 µg/mL in data set [7]; 128 µg/mL in data set [8]. Moreover, the MIC in [9], in [10] and in [11] was 32 µg/mL each time. For the same substance, the “Median Lethal Dose” value in data set [3] is given as over 510 mg/kg.

With “NTrp -(n-Undecanoyl)-A54145A Nucleus [Compound 2]”, in the data set on Streptococcus pyogenes, the “ED50 vs. Streptococcus pyogenes” value was found to be 1.65 mg/kg × 2. For the same substance, the MIC in [1] was 32 µg/mL; in data set [2], 0.5 µg/mL; in data set [4], 2 µg/mL; in data set [5], 2 µg/mL; in [6] it was 4 µg/mL; in data set [7], 2 µg/mL. For the same substance, the MIC is 16 µg/mL in data set [8], 4 µg/mL in data set [9], 4 µg/mL in [10] and 2 µg/mL in data set [11]. Further, the “Median Lethal Dose” value in data set [3] is given as over 520 mg/kg.
